Here are results for five molecules from patent US7476316B2, “Molecularly imprinted polymers (MIPS) for the selective removal of inorganic contaminants from liquids” (priority 2005, dated 2009).

Each structure is given as a SMILES string.

For series [1] the following is noted: cited from earlier work.
Series [2] is described as follows: removal of gold-containing cations from water by ligand-based MIP. As to conditions: ligand used in cationic molecularly imprinted polymer. The text has this:
(§1) General classes of cationic ligands that can be used in the present method include, but are not limited to, cationic oxygen containing heterocyclics, cationic nitrogen containing heterocyclics, cationic sulfur containing heterocyclics, cationic phosphorous containing heterocyclics, ammonium salts, phosphonium salts, acylinium salts, metallocenium salts, amidinium salts, imminium salts, and trityl salts. In one embodiment, the ligand can be 4-vinylbenzyl-N,N-dimethyl-N-decylammonium, 4-vinylbenzyl-N-decyl-N-methylglucammonium, N-methyl vinylpyridinium, or 4-vinylbenzyl-N,N-dimethyl-D-glucammonium.

Series [3] can be described thus: removal of arsenate from water by ligand-based MIP. As to conditions: ligand used in suspension polymerization MIP.
Excerpt: as §1

Consider `OCCCCCO` [1,5-pentanediol], for which, in series [1], the miscibility with water result was “completely miscible”. As to `C=Cc1ccc(C[N+](C)(C)CCCCCCCCCC)cc1.[Cl-]` [Example 1, N-(4-vinylbenzyl)-N-decyl-N,N-dimethylammonium chloride], the “removal of gold-containing cations from water” value in series [2] is on record as “particularly good results”. Further, the “removal of arsenate from water” value in series [3] is on record as “good results”. For the molecule `CCCCCO` [Example 1-pentanol, 1-pentanol], the soluble in water in series [1] (in water) was 2.3 % weight/weight.

Take `C=Cc1ccc(C[N+](C)(CCCCCCCCCC)C[C@H](O)[C@@H](O)[C@H](O)[C@H](O)CO)cc1.[I-]` (stereo partly drawn) [Example 3, N-(4-Vinylbenzyl)-N-decyl-N-methylglucammonium iodide]: in series [3], the “removal of arsenate from water” value is listed as “good results”. For the molecule `CCCCC` [n-pentane], the miscibility with water entry in series [1] is on record as “completely immiscible”.
